The record followed here is patent US7915291B2, “Hepatitis C virus inhibitors” (Bristol-Myers Squibb Company, priority 2002, dated 2011).

A word on the IC50: it is the concentration that inhibits the measured activity by half. The EC50 is the concentration needed to bring the measured effect to its halfway point.

Experiment [1] has as its target HCV NS3/4A protease complex, BMS strain (UniProt P27958, C1454S/C1711G, species not given/STRAIN_BMS). Nature of the experiment: Recombinant HCV NS3/4A protease complex FRET peptide assay (BMS strain). It counts as biochemical, HCV genotype 1a. As to conditions: NS3/4A BMS strain; read-out: IC50 range. The source says:
Recombinant HCV NS3/4A Protease Complex FRET Peptide Assay
The purpose of this in vitro assay was to measure the inhibition of HCV NS3 protease complexes, derived from the BMS, H77C or J416S strains, as described below, by compounds of the present invention.
Serum from an HCV-infected patient was obtained from Dr. T. Wright, San Francisco Hospital. An engineered full-length cDNA (compliment deoxyribonucleic acid) template of the HCV genome (BMS strain) was constructed from DNA fragments obtained by reverse transcription-PCR(RT-PCR) of serum RNA (ribonucleic acid) and using primers selected on the basis of homology between other genotype 1a strains.
The BMS, H77C and J4L6S strains were used for production of recombinant NS3/4A protease complexes. […] Briefly, a three-lysine solubilizing tail was added at the 3′-end of the NS4A coding region. […] Briefly, NS3/4A expression was induced with 0.5 mM Isopropyl β-D-1-thiogalactopyranoside (IPTG) for 22 hr at 20° C. […] The crude protein extract was loaded on a Nickel—Nitrilotriacetic acid (Ni-NTA) column pre-equilibrated with buffer B (25 mM HEPES, pH8.0, 20% glycerol, 500 mM NaCl, 0.5% Triton-X100, 15 mM imidazole, 5 mM βME). The sample was loaded at a flow rate of 1 mL/min. The column was washed with 15 column volumes of buffer C (same as buffer B except with 0.2% Triton-X100). The protein was eluted with 5 column volumes of buffer D (same as buffer C except with 200 mM Imidazole).
NS3/4A protease complex-containing fractions were pooled and loaded on a desalting column Superdex-S200 pre-equilibrated with buffer D (25 mM HEPES, pH7.5, 20% glycerol, 300 mM NaCl, 0.2% Triton-X100, 10 mM βME). Sample was loaded at a flow rate of 1 mL/min. NS3/4A protease complex-containing fractions were pooled and concentrated to approximately 0.5 mg/ml.
The enzyme was stored at −80° C., thawed on ice and diluted prior to use in assay buffer. […] The sequence of this peptide is loosely based on the NS4A/NS4B natural cleavage site except there is an ester linkage rather than an amide bond at the cleavage site. The peptide substrate was incubated with one of the three recombinant NS3/4A complexes, in the absence or presence of a compound of the present invention, and the formation of fluorescent reaction product was followed in real time using a Cytofluor Series 4000.
The reagents were as follow: HEPES and Glycerol (Ultrapure) were obtained from GIBCO-BRL. Dimethyl Sulfoxide (DMSO) was obtained from Sigma. β-Mercaptoethanol was obtained from Bio Rad.
Substrate: 2 μM final concentration (from a 2 mM stock solution in DMSO stored at −20° C.). HCV NS3/4A type 1a (1b), 2-3 nM final concentration (from a 5 μM stock solution in 25 mM HEPES, pH7.5, 20% glycerol, 300 mM NaCl, 0.2% Triton-X100, 10 mM βME).
The assay was performed in a 96-well polystyrene black plate from Falcon. Each well contained 25 μl NS3/4A protease complex in assay buffer, 50 μof a compound of the present invention in 10% DMSO/assay buffer and 25 μl substrate in assay buffer. A control (no compound) was also prepared on the same assay plate. The enzyme complex was mixed with compound or control solution for 1 min before initiating the enzymatic reaction by the addition of substrate. The assay plate was read immediately using the Cytofluor Series 4000 (Perspective Biosystems). The instrument was set to read an […] at 25° C. Reactions were generally followed for approximately 15 minutes.
The percent inhibition was calculated with the following equation: 100−[(δFinh/δFcon)×100] where δF is the change in fluorescence over the linear range of the curve.

For experiment [2], the system named is HCV replicon in Huh7 cells. Nature of the experiment: HCV replicon cell-based assay. On the set-up: species or system HCV strain 1B. As to conditions: Hepatitis C virus, Huh-7; HCV replicon, Huh7 cells; read-out: EC50 range. The source says:
HCV Replicon Cell-based Assay
This system enabled us to evaluate the effects of our HCV Protease compounds on HCV RNA replication. Briefly, using the HCV strain 1B sequence described in the Lohmann paper (Assession number:AJ238799), an HCV cDNA was generated encoding the 5′ internal ribosome entry site (IRES), the neomycin resistance gene, the EMCV (encephalomyocarditis virus)-IRES and the HCV nonstructural proteins, NS3-NS5B, and 3′ non-translated region (NTR). In vitro transcripts of the cDNA were transfected into the human hepatoma cell line, Huh7. […] Resulting cell lines were characterized for positive and negative strand RNA production and protein production over time.
Huh7 cells, constitutively expressing the HCV replicon, were grown in Dulbecco's Modified Eagle Media (DMEM) containing 10% Fetal calf serum (FCS) and 1 mg/ml G418 (Gibco-BRL). Cells were seeded the night before (1.5×10^4 cells/well) in 96-well tissue-culture sterile plates. Compound and no compound controls were prepared in DMEM containing 4% FCS, 1:100 Penicillin/Streptomysin, 1:100 L-glutamine and 5% DMSO in the dilution plate (0.5% DMSO final concentration in the assay). Compound/DMSO mixes were added to the cells and incubated for 4 days at 37° C. After 4 days, plates were rinsed thoroughly with Phosphate-Buffered Saline (PBS) (3 times 150 μl). The cells were lysed with 25 μl of a lysis assay reagent containing the FRET peptide (RET S1, as described for the in vitro enzyme assay). The lysis assay reagent was made from 5× cell Luciferase cell culture lysis reagent(Promega #E153A) diluted to 1× with distilled water, NaCl added to 150 mM final, the FRET peptide diluted to 10 μM final from a 2 mM stock in 100% DMSO. The plate was then placed into the Cytofluor 4000 instrument which had been set to 340 nm excitation/490 emission, automatic mode for 21 cycles and the plate read in a kinetic mode. EC50 determinations were carried out as described for the IC50 determinations.
Cells were lyzed using the Rneasy kit (Qiagen). […] All primers were designed with ABI Prism 7700 software and obtained from Biosearch Technologies, Novato, Calif. Samples containing known concentrations of HCV RNA transcript were run as standards. Using the following cycling protocol (50° C., 30 min; 95° C., 5 min; 40 cycles of 95° C., 15 sec, 60° C., 1 min), HCV RNA expression was quantitated as described in the Perkin Elmer manual using the ABI Prism 7700 Sequence Detector.
In general terms: In antiviral work, replicon cells carry a viral genome segment that copies itself.

On to `C=CC1C[C@]1(NC(=O)[C@@H]1C[C@@H](Oc2nccc3sccc23)CN1C(=O)[C@@H](NC(=O)OC(C)(C)C)C(C)(C)C)C(=O)NS(=O)(=O)C1CC1` (stereo partly shown) [Compound 235], for which the concentration for half-maximal inhibition (IC50) in experiment [1] was under 100 nM. The 50% effective concentration (EC50) in experiment [2] is 100 to 1000 nM.
As for `C=C[C@@H]1C[C@]1(NC(=O)[C@@H]1C[C@@H](Oc2ncc(Cl)c3ccc(OC)cc23)CN1C(=O)[C@@H](NC(=O)OC(C)(C)C)C(C)(C)C)C(=O)NS(=O)(=O)C1CC1` [Compound 284], the IC50 in experiment [1] fell in the range of 100 to 1000 nM. The half-maximal effective concentration (EC50) in experiment [2] lay in the range of 10000 to 100000 nM.
As to `C=C[C@@H]1C[C@]1(NC(=O)[C@@H]1C[C@@H](Oc2nccc3cc(OC(F)(F)F)ccc23)CN1C(=O)[C@@H](NC(=O)OC(C)(C)C)C(C)(C)C)C(=O)NS(=O)(=O)C1CC1` [Compound 282], the concentration for half-maximal inhibition (IC50) in experiment [1] was under 100 nM. The EC50 in experiment [2] lay within 100 to 1000 nM.
Taken in the same sequence, the figures for `C=CC1C[C@]1(NC(=O)[C@@H]1C[C@@H](Oc2nccc(-c3ccccc3)n2)CN1C(=O)[C@@H](NC(=O)OC)C(C)(C)C)C(=O)NS(=O)(=O)C1CC1` (stereo partly shown) [Compound 335] were under 100 nM and 1000 to 10000 nM.
The like results for `C=C[C@@H]1C[C@]1(NC(=O)[C@@H]1C[C@@H](Oc2nccc3cc(OC)ccc23)CN1C(=O)[C@@H](NC(=O)OC(C)(C)C)[C@@H](C)OC(C)(C)C)C(=O)NS(=O)(=O)C1CC1` [Compound 93] were, in that order, 100 to 1000 nM and 100 to 1000 nM.
As to `C=C[C@@H]1C[C@]1(NC(=O)[C@@H]1C[C@@H](Oc2nccc3cc(OC)ccc23)CN1C(=O)[C@@H](NC(=O)OCC(C)(C)C)C(C)(C)C)C(=O)NS(=O)(=O)C1CC1` [Compound 18], the IC50 in experiment [1] was under 100 nM. The half-maximal effective concentration (EC50) in experiment [2] was under 100 nM.
On to `C=C[C@@H]1C[C@]1(NC(=O)[C@@H]1C[C@@H](Oc2nccc3ccccc23)CN1C(=O)[C@@H](NC(=O)[C@@H]1COc2ccccc2O1)C(C)(C)C)C(=O)NS(=O)(=O)C1CC1` [Compound 133], for which the IC50 in experiment [1] is 100 to 1000 nM. Also, in experiment [2], the half-maximal effective concentration (EC50) lay within 1000 to 10000 nM.
`CC[C@@H]1C[C@]1(NC(=O)[C@@H]1C[C@@H](Oc2nccc3c(OC)cccc23)CN1C(=O)[C@@H](NC(=O)OC(C)(C)C)C(C)(C)C)C(=O)NS(=O)(=O)C1CC1` [Compound 292]: in experiment [1], the half-inhibitory concentration (IC50) is under 100 nM. Also, the EC50 in experiment [2] lay within 100 to 1000 nM.
For the molecule `C=C[C@@H]1C[C@]1(NC(=O)[C@@H]1C[C@@H](Oc2nccc3c(N4CCOCC4)cccc23)CN1C(=O)[C@@H](NC(=O)OC(C)(C)C)C(C)(C)C)C(=O)NS(=O)(=O)C1CC1` [Compound 271], the IC50 in experiment [1] is under 100 nM. Besides, in experiment [2], the EC50 lay within 100 to 1000 nM.
In the case of `C=C[C@@H]1C[C@]1(NC(=O)[C@@H]1C[C@@H](Oc2nccc3cc(OC)ccc23)CN1C(=O)[C@H](CC(=O)O)NC(=O)OC(C)(C)C)C(=O)NS(=O)(=O)C1CC1` [Compound 140], in experiment [1], the IC50 was under 100 nM. For the same molecule, the EC50 in experiment [2] lay within 1000 to 10000 nM.
Taken in the same sequence, the figures for `C=C[C@@H]1C[C@]1(NC(=O)[C@@H]1CC(Oc2nccc3cc(OC)ccc23)CN1C(=O)[C@@H](NC(=O)C1C2CC1C2)C(C)(C)C)C(=O)NS(=O)(=O)C1CC1` (stereo partly shown) [Compound 62] were under 100 nM and under 100 nM.
In the case of `C=CC1C[C@]1(NC(=O)[C@@H]1C[C@@H](Oc2nccc(-c3cccs3)n2)CN1C(=O)[C@@H](NC(=O)CC1CC1)C(C)(C)C)C(=O)NS(=O)(=O)C1CC1` (stereo partly shown) [Compound 338], the 50% inhibitory concentration (IC50) in experiment [1] was under 100 nM. Also, the EC50 in experiment [2] fell in the range of 1000 to 10000 nM.
The like results for `C=C[C@@H]1C[C@]1(NC(=O)[C@@H]1C[C@@H](Oc2cc(-c3cccs3)ncn2)CN1C(=O)[C@@H](NC(=O)OC(C)(C)C)C(C)(C)C)C(=O)NS(=O)(=O)C1CC1` [Compound 412] were, in that order, under 100 nM and under 100 nM.
The like results for `C=C[C@@H]1C[C@]1(NC(=O)[C@@H]1C[C@@H](Oc2ccnc(-c3cccn3C)c2)CN1C(=O)[C@@H](NC(=O)OC(C)(C)C)C(C)(C)C)C(=O)NS(=O)(=O)C1CC1` [Compound 434] were, in that order, under 100 nM and 100 to 1000 nM.
The like results for `C=C[C@@H]1C[C@]1(NC(=O)[C@@H]1C[C@@H](Oc2cc(C)nc(-c3cccs3)c2)CN1C(=O)[C@@H](NC(=O)OC(C)(C)C)C(C)(C)C)C(=O)NS(=O)(=O)C1CC1` [Compound 438] were, in that order, under 100 nM and 100 to 1000 nM.
Regarding `C=C[C@@H]1C[C@]1(NC(=O)[C@@H]1C[C@@H](Oc2nccc3c(OC(F)(F)F)cccc23)CN1C(=O)[C@@H](NC(=O)OC(C)(C)C)C(C)(C)C)C(=O)NS(=O)(=O)C1CC1` [Compound 269], the half-maximal inhibitory concentration (IC50) in experiment [1] was under 100 nM. Moreover, in experiment [2], the EC50 fell in the range of 100 to 1000 nM.
For `C=C[C@@H]1CC1(NC(=O)[C@@H]1CC(Oc2nccc3cc(OC)ccc23)CN1C(=O)[C@@H](NC(=O)NC(C)(C)C)C(C)(C)C)C(=O)NS(=O)(=O)C1CC1` (stereo partly shown) [Compound 74], in experiment [2], the 50% effective concentration (EC50) is under 100 nM.
Same read-out and setting: the result for `C=C[C@@H]1C[C@]1(NC(=O)[C@@H]1C[C@@H](Oc2ccnc3cc(OC)ccc23)CN1C(=O)[C@@H](NC(=O)OC(C)(C)C)C(C)(C)C)C(=O)NS(=O)(=O)C1CC1` [Compound 376] reads under 100 nM; that for `C=C[C@@H]1C[C@]1(NC(=O)[C@@H]1C[C@@H](Oc2ncc(OC)c3ccc(Cl)cc23)CN1C(=O)[C@@H](NC(=O)OC(C)(C)C)C(C)(C)C)C(=O)NS(=O)(=O)C1CC1` [Compound 277], under 100 nM; that for `C=C[C@@H]1C[C@]1(NC(=O)[C@@H]1C[C@@H](Oc2nccc3cc(OC)ccc23)CN1C(=O)[C@@H](NC(=O)N[C@@H](C)COC)C(C)(C)C)C(=O)NS(=O)(=O)C1CC1` [Compound 153], under 100 nM.
As for `C=C[C@@H]1C[C@]1(NC(=O)[C@@H]1C[C@@H](Oc2nccc3cc(OC)ccc23)CN1C(=O)[C@@H](NC(=O)N[C@H](C(=O)OC)C(C)(C)C)C(C)(C)C)C(=O)NS(=O)(=O)C1CC1` [Compound 146], the EC50 in experiment [2] is under 100 nM.
